Each compound was assayed against GST tagged truncated human mutant G2019S LRRK2 (Homo sapiens (Human), UniProt Q5S007, G2019S) (assay: LRRK2 Km ATP LanthaScreen Assay). Settings: G2019S LRRK2, 134 μM ATP (Km ATP), mean values.
Type: biochemical
Summary of the method: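 Enzyme (GST-tagged, truncated) was preincubated with compound for 15 min at RT in 50 mM Tris pH 8.5, 10 mM MgCl2, 0.01% Brij-35, 1 mM EGTA, 2 mM DTT and 0.05 mM orthovanadate. Fluorescein-LRRKtide and 134 μM ATP (Km) were then added for 90 min. EDTA and Tb-anti-pERM antibody stopped the reaction; the TR-FRET 520/495 ratio gave 4-parameter IC50s, reported as mean pIC50.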

GST tagged truncated human mutant G2019S LRRK2, sequence (Q5S007 970-2527 G2019S): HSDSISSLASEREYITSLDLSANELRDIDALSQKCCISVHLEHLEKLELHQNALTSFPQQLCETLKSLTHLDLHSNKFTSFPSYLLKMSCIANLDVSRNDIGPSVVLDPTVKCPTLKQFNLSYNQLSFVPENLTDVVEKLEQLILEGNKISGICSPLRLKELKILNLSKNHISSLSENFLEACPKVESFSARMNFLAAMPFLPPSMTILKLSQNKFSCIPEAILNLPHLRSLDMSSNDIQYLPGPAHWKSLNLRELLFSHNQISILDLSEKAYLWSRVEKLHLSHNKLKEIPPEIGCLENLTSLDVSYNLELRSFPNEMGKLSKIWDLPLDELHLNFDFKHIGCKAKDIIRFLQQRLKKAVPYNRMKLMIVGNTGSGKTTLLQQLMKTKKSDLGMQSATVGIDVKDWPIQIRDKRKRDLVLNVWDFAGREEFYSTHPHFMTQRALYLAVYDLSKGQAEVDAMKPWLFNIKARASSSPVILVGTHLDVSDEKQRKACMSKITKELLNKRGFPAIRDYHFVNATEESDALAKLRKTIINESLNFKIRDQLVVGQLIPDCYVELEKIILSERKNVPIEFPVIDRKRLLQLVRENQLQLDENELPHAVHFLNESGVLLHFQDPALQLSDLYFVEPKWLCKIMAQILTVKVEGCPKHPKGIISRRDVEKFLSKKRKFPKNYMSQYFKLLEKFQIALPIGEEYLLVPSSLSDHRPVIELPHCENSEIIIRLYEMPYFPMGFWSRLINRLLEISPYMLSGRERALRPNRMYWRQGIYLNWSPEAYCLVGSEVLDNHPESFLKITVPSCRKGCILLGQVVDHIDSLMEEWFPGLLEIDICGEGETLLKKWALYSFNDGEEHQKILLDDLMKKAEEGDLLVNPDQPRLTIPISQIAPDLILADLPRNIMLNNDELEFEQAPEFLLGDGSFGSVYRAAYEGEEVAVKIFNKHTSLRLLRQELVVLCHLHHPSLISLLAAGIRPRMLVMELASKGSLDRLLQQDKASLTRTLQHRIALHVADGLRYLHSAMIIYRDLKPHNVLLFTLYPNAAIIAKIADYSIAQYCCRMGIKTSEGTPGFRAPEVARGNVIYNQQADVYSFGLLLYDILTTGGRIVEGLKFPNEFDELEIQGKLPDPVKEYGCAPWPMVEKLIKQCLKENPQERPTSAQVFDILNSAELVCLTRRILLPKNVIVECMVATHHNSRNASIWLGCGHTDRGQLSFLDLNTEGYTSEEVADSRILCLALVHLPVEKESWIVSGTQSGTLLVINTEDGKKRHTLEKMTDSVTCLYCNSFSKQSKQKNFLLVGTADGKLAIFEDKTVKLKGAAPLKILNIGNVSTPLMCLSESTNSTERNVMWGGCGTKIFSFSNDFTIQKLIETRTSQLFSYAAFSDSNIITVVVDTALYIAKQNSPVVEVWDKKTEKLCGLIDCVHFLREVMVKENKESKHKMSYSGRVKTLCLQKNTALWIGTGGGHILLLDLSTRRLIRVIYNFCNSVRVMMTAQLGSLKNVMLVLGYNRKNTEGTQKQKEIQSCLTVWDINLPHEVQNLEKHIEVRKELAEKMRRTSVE

Row | Compound | LRRK2 pIC50
1 | (3S,4S) or (3R,4R) 6-chloro-N-(5-chloro-1-cyclopropyl-1H-pyrazol-4-yl)-7-(3-fluoropiperidin-4-yl)quinazolin-2-amine [Ex-4.1] | 9.08
2 | CC1(n2ncc(Nc3ncc4cc(Cl)c(C5CCN(CCC#N)CC5)cc4n3)c2Cl)CC1 [Ex-8.13, 3-[4-(6-chloro-2-{[5-chloro-1-(1-methylcyclopropyl)-1H-pyrazol-4-yl]amino}quinazolin-7-yl)piperidin-1-yl]propanenitrile] | >9.20
3 | O[C@@H]1COC[C@@H]1N1CCC(c2cc3nc(Nc4cnn(C5CC5)c4Cl)ncc3cc2Cl)CC1 (single isomer, unassigned) [Ex-4.105, (3S,4S) or (3R,4R) 4-(4-(6-chloro-2-((5-chloro-1-cyclopropyl-1H-pyrazol-4-yl)amino)quinazolin-7-yl)piperidin-1-yl)tetrahydrofuran-3-ol] | 8.51
4 | CC(C)(O)Cn1ncc(Nc2ncc3cc(Cl)c(C4(F)CCN(C5COC5)CC4)cc3n2)c1Cl [Ex-4.86, 1-[5-chloro-4-({6-chloro-7-[4-fluoro-1-(oxetan-3-yl)piperidin-4-yl]quinazolin-2-yl}amino)-1H-pyrazol-1-yl]-2-methylpropan-2-ol] | 8.09
5 | Cc1c(Nc2ncc3cc(Cl)c(C4CCN([C@@H]5COC[C@@H]5O)CC4)cc3n2)cnn1C1CC1(F)F (single isomer, unassigned) [Ex-4.182, (R)(3S,4S) or (S)(3S,4S) or (R)(3R,4R) or (S)(3R,4R) 4-[4-(6-chloro-2-{[1-(2,2-difluorocyclopropyl)-5-methyl-1H-pyrazol-4-yl]amino}quinazolin-7-yl)piperidin-1-yl]oxolan-3-ol] | >9.20
6 | OC1CCCC1N1CC[C@@H](c2cc3nc(Nc4cnn(C5CC5)c4Cl)ncc3cc2Cl)[C@H](F)C1 (single isomer, unassigned) [Ex-4.157, (1S,2R)(3S,4S) or (1R,2S)(3S,4S) or (1R,2R)(3S,4S) or (1S,2S)(3S,4S) or (1S,2R)(3R,4R) or (1R,2S)(3R,4R) or (1R,2R)(3R,4R) or (1S,2S)(3R,4R) 2-(4-{6-chloro-2-[(5-chloro-1-cyclopropyl-1H-pyrazol-4-yl)amino]quinazolin-7-yl}-3-fluoropiperidin-1-yl)cyclopentan-1-ol] | 8.38
7 | Cc1c(Nc2ncc3cc(Cl)c([C@@H]4CCN([C@@H]5COC[C@@H]5O)C[C@H]4F)cc3n2)cnn1C12CC(C1)C2 (single isomer, unassigned) [Ex-4.161, (3S,4S)(3S,4S) or (3S,4S)(3R,4R) or (3R,4R)(3S,4S) or (3R,4R)(3R,4R) 4-[4-(2-{[1-(bicyclo[1.1.1]pentan-1-yl)-5-methyl-1H-pyrazol-4-yl]amino}-6-chloroquinazolin-7-yl)-3-fluoropiperidin-1-yl]oxolan-3-ol] | 8.92
8 | Cc1c(Nc2ncc3cc(Cl)c(C4CCN(C[C@@H](O)c5cccc(F)c5)CC4)cc3n2)cnn1C1CC1 [Ex-4.196, (1S)-2-(4-{6-chloro-2-[(1-cyclopropyl-5-methyl-1H-pyrazol-4-yl)amino]quinazolin-7-yl}piperidin-1-yl)-1-(3-fluorophenyl)ethan-1-ol] | 8.87
9 | Cn1ncc(Nc2ncc3cc(Cl)c([C@H]4CCN([C@@H]5COC[C@@H]5O)C[C@@H]4F)cc3n2)c1C1CC1 (single isomer, unassigned) [Ex-4.241, (3S,4S)(3S,4S) or (3S,4S)(3R,4R) or (3R,4R)(3S,4S) or (3R,4R)(3R,4R) 4-(4-{6-chloro-2-[(5-cyclopropyl-1-methyl-1H-pyrazol-4-yl)amino]quinazolin-7-yl}-3-fluoropiperidin-1-yl)oxolan-3-ol] | >9.20
10 | Cc1cc2cnc(Nc3cnn(C4CC4)c3Cl)nc2cc1[C@H]1CCN(C2COC2)C[C@@H]1F (single isomer, unassigned) [Ex-4.85, (3S,4S) or (3R,4R) N-(5-chloro-1-cyclopropyl-1H-pyrazol-4-yl)-7-[3-fluoro-1-(oxetan-3-yl)piperidin-4-yl]-6-methylquinazolin-2-amine] | 8.76

Reference: patent US12540131B2 (Merck Sharp & Dohme LLC, priority 2019, dated 2026)
